Measurements from US20250000858A1, “FGFR TYROSINE KINASE INHIBITORS FOR THE TREATMENT OF ADVANCED SOLID TUMORS” (JANSSEN PHARMACEUTICA NV, priority 2021, published 2025).

Assay: Pharmacokinetic assessments (plasma concentrations, erdafitinib exposure; CYP2C9*3/*3 genotype)
Type: in vivo, human
Conditions: subjects with the CYP2C9*3/*3 genotype; 'may increase'
Excerpt: Therefore, increased adverse reactions are monitored in subjects who are known or suspected to have CYP2C9*3/*3 genotype.

## COc1cc(OC)cc(N(CCNC(C)C)c2ccc3ncc(-c4cnn(C)c4)nc3c2)c1 [erdafitinib, N-(3,5-dimethoxy-phenyl)-N′-(1-methylethyl)-N-[3-(1-methyl-1H-pyrazol-4-yl)quinoxalin-6-yl]ethane-1,2-diamine]
  increase of exposure of erdafitinib: 50%
